Measurements published in US20230295163A1, “TETRACYCLIC DERIVATIVE, METHOD FOR PREPARING SAME AND USE THEREOF IN MEDICINE” (ZHEJIANG HISUN PHARMACEUTICAL CO., LTD., priority 2020, published 2023).

Test system: p-ERK1/2 in NCI-H358 cells
Assay: Inhibition of p-ERK1/2 in NCI-H358 cells (HTRF kit)
Format: cell-based
Conditions: Homo sapiens, hEGF 5 nM stimulation, read-out: IC50 inhibiting p-ERK1/2 in NCI-H358 cells
Text: The following method was used to determine the inhibitory activity of the compounds of the present disclosure on p-ERK1/2 in NCI-H358 cells. In this method, Advanced phospho-ERK1/2 (Thr202/tyr204) kit (Cat. No. 64AERPEH) from Cisbio company was used, and the detailed experimental operation can be referred to the kit instruction. NCI-H358 cells (containing KRAS G12C mutation) were purchased from the Cell Resource Center, Shanghai Institutes for Biology Sciences, Chinese Academy of Sciences.
The experimental procedure is briefly described as follows: NCI-H358 cells were cultured in RPMIH 1640 complete medium containing 10% fetal bovine serum, 100 U penicillin, 100 μg/mL streptomycin and 1 mM sodium pyruvate. […] The 96-well plate was placed on ice for half an hour of lysis, and then the lysate was detected according to the instruction of the Advanced phospho-ERK1/2 (Thr202/tyr204) kit. Finally, the fluorescence intensity of each well at emission wavelengths of 620 nm and 665 nM was measured on a microplate reader in TF-FRET mode at an excitation wavelength of 304 nm, and the ratio of the fluorescence intensity of each well at 665/620 was calculated. The percentage of inhibition rate of the test compounds at each concentration was calculated by comparing with the fluorescence intensity of the control group (0.1% DMSO). […]

- IC50: 83.4 nM
Structure (SMILES): C=CC(=O)N1C[C@@H]2C(=O)N(C)c3c(c4cc(Cl)c(-c5c(O)cccc5F)nc4n(-c4c(SC)ccnc4C(C)C)c3=O)N2C[C@H]1C (single isomer, unassigned) [Compound 17]
